# Measurements published in patent publication US9550738B2, “Bicyclic compounds as kinases inhibitors” (HangzhouDeRenYuCheng Biotechnology Ltd, priority 2012, dated 2017).
# How the values were obtained:
# [1] = biological target: T1, Btk (Homo sapiens, UniProt Q06187); assay: Btk Ramos Cellular Assay (phosphorylation of the Btk substrate PLC gamma.2 after anti-IgM stimulation); format: cell-based; conditions: Ramos cells, 1 hour with compound at 1, 0.1, 0.01 or 0.001 μM, goat F(ab')2 Anti-Human IgM stimulation, blot for PLC gamma.2 phosphorylation; read-out: inhibition of Btk signaling in Ramos cellular assay, IC50
# T1 sequence (Q06187 whole entry, species assumed): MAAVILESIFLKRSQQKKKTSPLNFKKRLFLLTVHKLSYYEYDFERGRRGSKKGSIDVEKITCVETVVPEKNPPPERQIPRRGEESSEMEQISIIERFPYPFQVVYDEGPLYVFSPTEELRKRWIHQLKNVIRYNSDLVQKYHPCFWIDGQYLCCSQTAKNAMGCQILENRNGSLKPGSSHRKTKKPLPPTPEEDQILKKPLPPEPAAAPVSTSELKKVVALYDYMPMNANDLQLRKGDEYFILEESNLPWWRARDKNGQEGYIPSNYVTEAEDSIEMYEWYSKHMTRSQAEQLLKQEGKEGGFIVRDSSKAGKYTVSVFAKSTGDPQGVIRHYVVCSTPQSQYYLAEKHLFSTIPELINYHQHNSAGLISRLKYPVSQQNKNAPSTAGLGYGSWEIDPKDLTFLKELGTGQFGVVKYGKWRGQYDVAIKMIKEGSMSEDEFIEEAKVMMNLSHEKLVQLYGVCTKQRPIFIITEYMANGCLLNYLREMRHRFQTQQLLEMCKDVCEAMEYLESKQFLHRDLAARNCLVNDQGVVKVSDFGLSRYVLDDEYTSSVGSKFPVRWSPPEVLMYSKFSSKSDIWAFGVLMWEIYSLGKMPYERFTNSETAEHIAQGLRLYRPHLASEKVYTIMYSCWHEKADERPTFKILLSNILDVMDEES
# Description: Ramos cells were grown in suspension in T225 flasks, spun down, resuspended in 50 mL serum-free media and incubated for 1 hour. Compound was added to Ramos cells in serum free media to a final concentration of 1, 0.1, 0.01, or 0.001 μM. Ramos cells were incubated with compound for 1 hour, washed again and resuspended in 100 μL serum-free media. Cells were then stimulated with 1 μg of goat F(ab′)2 Anti-Human IgM and incubated on ice for 10 minutes to activate B cell receptor signaling pathways. After 10 minutes, the cells were washed once with PBS and then lysed on ice with Invitrogen Cell Extraction buffer. Sixteen μg total protein from lysates was loaded on gels and blots were probed for phosphorylation of the Btk substrate PLC gamma.2.
# [2] = biological target: T1, Btk; assay: In vitro Btk competition binding assay (kinase-tagged T7 phage, liganded affinity beads, qPCR readout); set-up: made in house; host or cells: E. coli BL21-derived host (T7 phage display) or HEK-293 cells; conditions: 11-point 3-fold serial dilution, top concentration 10,000 nM, Hill slope -1
# Description: An in vitro assay which determines the ability of a test compound to inhibit Btk.
# Kinase-tagged T7 phage strains were prepared in an E. coli host derived from the BL21 strain. E. coli were grown to log-phase and infected with T7 phage and incubated with shaking at 32° C. until lysis. The lysates were centrifuged and filtered to remove cell debris. The remaining kinases were produced in HEK-293 cells and subsequently tagged with DNA for qPCR detection. Streptavidin-coated magnetic beads were treated with biotinylated small molecule ligands for 30 minutes at room temperature to generate affinity resins for kinase assays. The liganded beads were blocked with excess biotin and washed with blocking buffer (SeaBlock (Pierce), 1% BSA, 0.05% Tween 20, 1 mM DTT) to remove unbound ligand and to reduce non-specific binding. Binding reactions were assembled by combining kinases, liganded affinity beads, and test compounds in 1× binding buffer (20% SeaBlock, 0.17× PBS, 0.05% Tween 20, 6 mM DTT). All reactions were performed in polystyrene 96-well plates in a final volume of 0.135 ml. The assay plates were incubated at room temperature with shaking for 1 hour and the affinity beads were washed with wash buffer (1× PBS, 0.05% Tween 20). The beads were then re-suspended in elution buffer (1× PBS, 0.05% Tween 20, 0.5 μM non-biotinylated affinity ligand) and incubated at room temperature with shaking for 30 minutes. The kinase concentration in the eluates was measured by qPCR.
# An 11-point 3-fold serial dilution of each test compound was prepared in 100% DMSO at 100× final test concentration and subsequently diluted to 1× in the assay (final DMSO concentration=1%). Kds were determined using a compound top concentration=10,000 nM. If the initial Kd determined was <0.5 nM (the lowest concentration tested), the measurement was repeated with a serial dilution starting at a lower top concentration.
# Binding constants (Kds) were calculated with a standard dose-response curve using the Hill equation: Response=Background+(Signal−Background)/(1+(Kd^Hill Slope/Dose^Hill Slope)). The Hill Slope was set to −1. Curves were fitted using a non-linear least square fit with the Levenberg-Marquardt algorithm.
# The following Table 1 lists compounds representative of the invention and their corresponding inhibitory activity against Btk.
smiles,measurement,setting,value
"COc1cc2ncnc(Nc3ccc(Oc4ccccc4)cc3)c2cc1NC(=O)/C=C/CN(C)C [Compound 27, (E)-4-(dimethylamino)-N-(7-methoxy-4-((4-phenoxyphenyl)amino)quinazolin-6-yl)but-2-enamide]",IC50,[1],< 100 nM
same,Kd,[2],2.2 nM
"CCOc1cc2ncnc(Nc3ccc(Oc4ccccc4)cc3)c2cc1NC(=O)/C=C/CN(C)C [Compound 31, (E)-4-(dimethylamino)-N-(7-ethoxy-4-((4-phenoxyphenyl)amino)quinazolin-6-yl)but-2-enamide]",IC50,[1],< 100 nM
same,Kd,[2],2.6 nM
"CN(C)C/C=C/C(=O)Nc1cc2c(Nc3ccc(Oc4ccccc4)cc3)ncnc2cc1O[C@H]1CCOC1 [Compound 35, (S,E)-4-(dimethylamino)-N-(4-((4-phenoxyphenyl)amino)-7-((tetrahydrofuran-3-yl)oxy)quinazolin-6-yl)but-2-enamide]",Kd,[2],< 100 nM
"C=CC(=O)Nc1cc2c(Nc3ccc(Oc4ccccc4)cc3)ncnc2cc1OC [Compound 36, N-(7-methoxy-4-((4-phenoxyphenyl)amino)quinazolin-6-yl)acrylamide]",Kd,[2],2.3 nM
"C=CC(=O)Nc1cc2c(Nc3ccc(Oc4ccccc4)cc3)ncnc2cc1OCC [Compound 37, N-(7-ethoxy-4-(4-phenoxyphenylamino)quinazolin-6-yl)acrylamide]",Kd,[2],1.2 nM
"C=CC(=O)Nc1cc2c(Nc3ccc(Oc4ccccc4)cc3)ncnc2cc1O[C@H]1CCOC1 [Compound 38, (S)-N-(4-((4-phenoxyphenyl)amino)-7-((tetrahydrofuran-3-yl)oxy)quinazolin-6-yl)acrylamide]",Kd,[2],< 100 nM
